Read-outs that look alike come from different tables or passages of the source.
Target: T1, human CCR7 (Homo sapiens, UniProt P32248)
T1 construct: expressed in transfected cells
T1 sequence (P32248 25-378): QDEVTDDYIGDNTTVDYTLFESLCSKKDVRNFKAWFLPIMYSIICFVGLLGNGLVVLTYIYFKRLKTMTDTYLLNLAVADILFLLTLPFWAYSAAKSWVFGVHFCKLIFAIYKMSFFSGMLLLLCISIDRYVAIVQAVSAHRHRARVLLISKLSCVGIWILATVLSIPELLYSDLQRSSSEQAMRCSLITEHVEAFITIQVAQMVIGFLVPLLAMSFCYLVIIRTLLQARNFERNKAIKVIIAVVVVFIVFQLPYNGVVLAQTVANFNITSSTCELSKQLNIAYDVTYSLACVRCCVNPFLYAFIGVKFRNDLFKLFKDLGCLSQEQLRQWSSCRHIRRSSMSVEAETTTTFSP
Assay: CCL19-induced calcium mobilization assay, U87.CD4 cells expressing CCR7
Type: cell-based
Conditions: for IC50: read-out: IC50 [μM] block CCL19 induced calcium signaling
Method in brief: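 Calcium mobilization was recorded in U87.CD4 cells stably carrying human CXCR2 (stimulated with CXCL8), CCR7 (stimulated with CCL19) or CCR5. Cells were plated at 20,000 cells/well, cultured overnight at 37°C in 5% CO2, and incubated 45 min at room temperature in the dark before reading.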

[1] = CCL19-induced calcium signaling
[2] = classification of tested compounds as decoy or active
[3] = CCL19 induced calcium signaling
[4] = classification as decoy or active on CCR7

SMILES | IC50 [1] [µM] | Decoy – 0 Active – 1 [2] | IC50 [3] [µM] | Decoy – 0 Active – 1 [4]
C/N=C(\NCCC(=O)N(C)C)N[C@H](C)c1ccc(C)o1 [C140, C/[NH+]=C(\NCCC(=O)N(C)C)N[C@H](C)c1ccc(C)o1] | > 50 | 0 |  | 
COCCN(Cc1cccs1)C(=O)N[C@@H](C)c1ccc(C)o1 [C141, COCCN(Cc1cccs1)C(=O)N[C@@H](C)c1ccc(C)o1] | > 50 | 0 |  | 
CC(C)Cc1cc(C(=O)N(Cc2ccccc2Cl)C(C)C)nc(=O)[nH]1 [C142, CC(C)Cc1cc(C(=O)N(Cc2ccccc2Cl)C(C)C)nc(=O)[nH]1] | > 50 | 0 |  | 
Cc1cnn(C[C@@H]2CCCN2C(=O)[C@H](C(C)C)n2cncn2)c1 [C143, Cc1cnn(C[C@@H]2CCCN2C(=O)[C@H](C(C)C)n2cncn2)c1] | > 50 | 0 |  | 
CC(=O)N[C@@H](Cc1ccccc1)C(=O)N[C@H](C)c1ccccc1 [C144, CC(=O)N[C@@H](Cc1ccccc1)C(=O)N[C@H](C)c1ccccc1] | > 50 | 0 |  | 
O=C1C[C@H](NC(=O)CCn2cccn2)CN1 [C145, O=C1C[C@H](NC(=O)CCn2cccn2)CN1] | > 50 | 0 |  | 
CC(C)[C@@H](Nc1nccc(CCC(F)(F)F)n1)c1nccn1C [C146, CC(C)[C@@H](Nc1nccc(CCC(F)(F)F)n1)c1nccn1C] | > 50 | 0 |  | 
O=C(N[C@@H](c1nccs1)C1CC1)c1cc(N2CCOCC2)ccn1 [C147, O=C(N[C@@H](c1nccs1)C1CC1)c1cc(N2CCOCC2)cc[nH+]1] | > 50 | 0 |  | 
O=S1(=O)N=C(NCc2ccco2)c2ccccc21 [C148, O=S1(=O)N=C(NCc2ccco2)c2ccccc21] | > 50 | 0 |  | 
O=S1(=O)N=C(NCc2ccccn2)c2ccccc21 [C149, O=S1(=O)N=C(NCc2ccccn2)c2ccccc21] | > 50 | 0 |  | 
O=S1(=O)N=C(NCCN2CCCC2)C(NCCN2CCCC2)=N1 [C150, O=S1(=O)N=C(NCC[NH+]2CCCC2)C(NCC[NH+]2CCCC2)=N1] | > 50 | 0 |  | 
O=C1NC[C@H](C(=O)N(Cc2ccco2)C2CC2)N1 [C151, O=C1NC[C@H](C(=O)N(Cc2ccco2)C2CC2)N1] | > 50 | 0 |  | 
CCn1nccc1[C@H]1NC(=O)CC[C@H]1NC(=O)c1cc(C)n(C)n1 [C152, CCn1nccc1[C@H]1NC(=O)CC[C@H]1NC(=O)c1cc(C)n(C)n1] | > 50 | 0 |  | 
Cn1ccnc1[C@H](NC1=NS(=O)(=O)c2ccccc21)c1cccc(F)c1 [C153, Cn1ccnc1[C@H](NC1=NS(=O)(=O)c2ccccc21)c1cccc(F)c1] | > 50 | 0 |  | 
O=C([C@@H]1C[C@@H]1c1ccco1)N1CCC[C@H]1Cc1ccc(F)cc1 [C154, O=C([C@@H]1C[C@@H]1c1ccco1)N1CCC[C@H]1Cc1ccc(F)cc1] | > 50 | 0 |  | 
CC(C)[C@@H](NC(=O)c1cccc(NC(=O)C2CC2)c1)c1ccccn1 [C155, CC(C)[C@@H](NC(=O)c1cccc(NC(=O)C2CC2)c1)c1ccccn1] | > 50 | 0 |  | 
CC[C@@H](NC1=NS(=O)(=O)c2ccccc21)C(=O)NOC [C156, CC[C@@H](NC1=NS(=O)(=O)c2ccccc21)C(=O)NOC] | > 50 | 0 |  | 
CNC(=O)[C@H](NC1=NS(=O)(=O)c2ccccc21)C(C)C [C157, CNC(=O)[C@H](NC1=NS(=O)(=O)c2ccccc21)C(C)C] | > 50 | 0 |  | 
COC(=O)c1ccc([C@H]2CC(=O)Nc3c2cnn3Cc2ccco2)cc1 [C158, COC(=O)c1ccc([C@H]2CC(=O)Nc3c2cnn3Cc2ccco2)cc1] | > 50 | 0 |  | 
CC[C@@H](NC(=O)c1cc(-c2cccc(OC)c2)n[nH]1)c1nc(C)c(C)s1 [C159, CC[C@@H](NC(=O)c1cc(-c2cccc(OC)c2)n[nH]1)c1nc(C)c(C)s1] |  |  | > 50 | 0
Cn1nc(C(=O)N[C@@H]2CCCC[C@@H]2Cc2ccccc2)ccc1=O [C160, Cn1nc(C(=O)N[C@@H]2CCCC[C@@H]2Cc2ccccc2)ccc1=O] |  |  | > 50 | 0

SMILES | IC50 [1] [µM] | Decoy – 0 Active – 1 [2] | IC50 [3] [µM] | Decoy – 0 Active – 1 [4]
CC[C@@H](NC(=O)N1CCN(C(=O)c2ccccc2)CC1)c1cccc(C)n1 [C161, CC[C@@H](NC(=O)N1CCN(C(=O)c2ccccc2)CC1)c1cccc(C)n1] |  |  | > 50 | 0
Cc1cc(NCCn2cccn2)c2ccc(C(F)(F)F)cc2n1 [C162, Cc1cc(NCCn2cccn2)c2ccc(C(F)(F)F)cc2[nH+]1] |  |  | > 50 | 0
CC[C@H](NC(=O)N(CCO)Cc1ccc(F)cc1)c1nc(C)no1 [C163, CC[C@H](NC(=O)N(CCO)Cc1ccc(F)cc1)c1nc(C)no1] |  |  | > 50 | 0
COc1ccc(O)c(/C=C(\C#N)C(=O)Nc2cccc(Cl)c2Cl)c1 [C164, COc1ccc(O)c(/C=C(\C#N)C(=O)Nc2cccc(Cl)c2Cl)c1] |  |  | > 50 | 0
CCC1(C(N)=O)CCCN(C(=O)NCc2c(Cl)cccc2Cl)C1 (stereo not drawn) [C165, CCC1(C(N)=O)CCCN(C(=O)NCc2c(Cl)cccc2Cl)C1] |  |  | > 50 | 0
O=C(NCC(C1CC1)C1CC1)N1CCC(O)(C(F)(F)F)CC1 [C166, O=C(NCC(C1CC1)C1CC1)N1CCC(O)(C(F)(F)F)CC1] |  |  | > 50 | 0
Cc1oc2ccccc2c1CNC(=O)N1CCC(C)(CO)CC1 [C167, Cc1oc2ccccc2c1CNC(=O)N1CCC(C)(CO)CC1] |  |  | > 50 | 0
CC(C)C1(CO)CCCN(C(=O)NCc2ccc(Cl)cc2F)C1 (stereo not drawn) [C168, CC(C)C1(CO)CCCN(C(=O)NCc2ccc(Cl)cc2F)C1] |  |  | > 50 | 0
CC(C)Oc1ccc2ccccc2c1CNC(=O)N1CCC(C)(O)C1 (stereo not drawn) [C169, CC(C)Oc1ccc2ccccc2c1CNC(=O)N1CCC(C)(O)C1] |  |  | > 50 | 0
Cc1ccccc1NC(=O)c1c(O)nc2ccccc2c1O [C170, Cc1ccccc1NC(=O)c1c(O)nc2ccccc2c1O] |  |  | > 50 | 0
CN(Cc1ccccc1Cl)C(C(=O)O)c1ccc(F)c(CO)c1 (stereo not drawn) [C171, C[NH+](Cc1ccccc1Cl)C(C(=O)[O-])c1ccc(F)c(CO)c1] |  |  | > 50 | 0
Cc1noc(C)c1CNC(=O)COc1ccccc1CO [C172, Cc1noc(C)c1CNC(=O)COc1ccccc1CO] |  |  | > 50 | 0
NC(=O)Nc1cccc(C(=O)NCc2ccccc2Cl)c1 [C173, NC(=O)Nc1cccc(C(=O)NCc2ccccc2Cl)c1] |  |  | > 50 | 0
O=C(COc1ccccc1O)NCc1ccccc1Cl [C174, O=C(COc1ccccc1O)NCc1ccccc1Cl] |  |  | > 50 | 0
CC1(O)CN(C(=O)c2cc3c(Br)cccc3[nH]2)C1 [C175, CC1(O)CN(C(=O)c2cc3c(Br)cccc3[nH]2)C1] |  |  | > 50 | 0
CC1CN(C(=O)c2cc3c(OC(F)(F)F)cccc3[nH]2)CC(=O)N1 (stereo not drawn) [C176, CC1CN(C(=O)c2cc3c(OC(F)(F)F)cccc3[nH]2)CC(=O)N1] |  |  | > 50 | 0
CC1(C)Cc2nc(C(C)(C)C)ncc2C(NC(=O)c2cc(C(F)(F)F)n[nH]2)C1 (stereo not drawn) [C177, CC1(C)Cc2nc(C(C)(C)C)ncc2C(NC(=O)c2cc(C(F)(F)F)n[nH]2)C1] |  |  | > 50 | 0
CC1(C)CC(NC(=O)c2cc(O)c3ccccc3c2)C(C)(C)O1 (stereo not drawn) [C178, CC1(C)CC(NC(=O)c2cc(O)c3ccccc3c2)C(C)(C)O1] |  |  | > 50 | 0
Cc1cccc(C)c1NC(=O)c1cc(S(N)(=O)=O)c(Cl)cc1O [C179, Cc1cccc(C)c1NC(=O)c1cc(S(N)(=O)=O)c(Cl)cc1O] |  |  | > 50 | 0
O=C(NCc1ccccc1F)N1CCC(c2ccc3c(c2)OCO3)C(O)C1 (stereo not drawn) [C180, O=C(NCc1ccccc1F)N1CCC(c2ccc3c(c2)OCO3)C(O)C1] |  |  | > 50 | 0
COc1ccc(C(Cc2ccccc2)NC(=O)N2CCC(O)C(F)(F)C2)cc1 (stereo not drawn) [C181, COc1ccc(C(Cc2ccccc2)NC(=O)N2CCC(O)C(F)(F)C2)cc1] |  |  | > 50 | 0
